{"source": "patent US11033598B2", "about": "“Pharmaceutical composition for preventing or treating hearing loss comprising oat extract as an active ingredient” (priority 2016, dated 2021)", "key": {"[1]": {"test_system": "hearing loss mouse model (noise-induced hearing loss)", "experiment": "Hearing threshold by auditory brainstem response (ABR) after exposure to noise", "format": "in vivo", "conditions": "mice; for effect of preserving the hearing threshold (ABR, tone burst): 4 kHz, 8 kHz, 16 kHz TB", "procedure": "In order to verify a hearing preservation effect of avenanthramide before exposure to noise, an experiment for measuring a hearing threshold was performed using an auditory brainstem response. A method of measuring the auditory brainstem response (ABR) is a method of evaluating a response to a sound by measuring electric energy when a sound stimulus is transmitted as an electrical signal in the auditory nerve. When the sound reaches the auditory nerve through the outer ear, the middle ear, and the cochlea, the response reflects all states of the outer ear, the middle ear, and the cochlea and reflects the actual sound energy to which the sound energy reaches the brain. The hearing threshold refers to a minimum sensory point of sound that is barely audible, and in a normal mouse, the response is observed even on the small sound having the average of 20 to 30 dB.\nMice to which avenanthramide was administered and untreated control mice were divided into four groups of eight mice, respectively, and evaluated. The noise was exposed with a pure tone of 90 dB of 8 KHz for 6 hours and 10 μg/kg of avenanthramide was intraperitoneally administered to mice before 6 hours and 24 hours of exposure to noise. During the auditory brainstem response test, the stimulus sound was evaluated by lowering the sound gradually from 90 dB by 5 dB with a click sound of a broadband stimulus sound, and the smallest sound of the response was set as the threshold. In addition, the hearing threshold was measured with a stimulus sound of 4 kHz, 8 kHz, 16 kHz, 24 kHz, and 32 kHz tone burst (TB), and in order to verify a hearing preservation effect of avenanthramide, the experiment for measuring the hearing threshold was performed in the same manner as above. The result was illustrated in FIG. 7.\n(§1) The noise was exposed with a pure tone of 90 dB 8 KHz for 6 hours and 10 μg/kg of avenanthramide was intraperitoneally administered to mice before 6 hours and 24 hours of exposure to noise. Then, the ABR test was performed after two weeks of noise induction in the same manner as Experimental Example 1-1 and the result was illustrated in FIG. 8.\nas §1, with “95” for “90”, “9.” for “8.”"}, "HEI-OC1 cell line": {"test_system": "HEI-OC1 cell line", "experiment": "DCF-DA assay of ROS generation in gentamicin hearing loss model cells", "conditions": "for ROS generation rate (DCF-DA): Table 2; for protection of hearing loss (DCF-DA test) as compared to gentamicin only: 0.1 μg/ml to 2 μg/ml, 24 hours before gentamicin 4 μM; for protection of hearing loss (DCF-DA test) as compared to gentamicin only / increase rate of the DCF fluorescence intensity: HEI-OC1; for increase rate of the DCF fluorescence intensity: 24 hrs"}}}
{"compound": "O=C(/C=C/c1ccc(O)c(O)c1)Nc1ccc(O)cc1C(=O)O", "note": "[AVN, avenanthramide-C]", "values": [{"measurement": "lowering of hearing threshold (ABR, click) versus exposure to noise without treatment", "setting": "[1]; 10 μg/kg i.p. 6 and 24 hours before noise 90 dB 8 KHz 6 hours, ABR two weeks after noise, FIG. 8", "result": "≥ 20", "unit": "dB"}, {"measurement": "lowering of hearing threshold (ABR, click) versus exposure to noise without treatment", "setting": "[1]; 10 μg/kg i.p. 6 and 24 hours before noise 95 dB 8 KHz 6 hours, ABR two weeks after noise, FIG. 9", "result": "≥ 40", "unit": "dB"}, {"measurement": "hearing threshold (ABR, click) versus control", "setting": "[1]; 10 μg/kg i.p. before noise 95 dB 8 KHz 6 hours, ABR two weeks after noise, FIG. 9", "result": "almost the same threshold value as the control"}, {"measurement": "hearing threshold (ABR, click) versus exposure to noise without treatment", "setting": "[1]; 10 μg/kg intraperitoneally 6 hours and 24 hours before noise (90 dB, 8 KHz, 6 hours), FIG. 7", "result": "lower threshold"}, {"measurement": "effect of preserving the hearing threshold (ABR, tone burst)", "setting": "[1]; 10 μg/kg i.p. before noise 90 dB, FIG. 7", "result": "the effect of preserving the hearing threshold was high"}, {"measurement": "effect of preserving the hearing threshold (ABR, tone burst)", "setting": "[1]; noise 90 dB, ABR two weeks after noise, FIG. 8", "result": "the effect of preserving the hearing threshold was high"}, {"measurement": "effect of preserving the hearing threshold (ABR, tone burst)", "setting": "[1]; noise 95 dB, ABR two weeks after noise, FIG. 9", "result": "the effect of preserving the hearing threshold was high"}, {"measurement": "increase rate of DCF fluorescent intensity", "setting": "HEI-OC1 cell line; AVN 0.5 μM 3 hr + GM 3 μM", "result": 45.85}, {"measurement": "increase rate of DCF fluorescent intensity", "setting": "HEI-OC1 cell line; AVN 0.5 μM 12 hr + GM 3 μM", "result": 45.12}, {"measurement": "increase rate of DCF fluorescent intensity", "setting": "HEI-OC1 cell line; AVN 0.5 μM 24 hr + GM 3 μM", "result": 34.89}, {"measurement": "ROS generation rate (DCF-DA)", "setting": "HEI-OC1 cell line; AVN 1 μM alone", "result": 4.43}, {"measurement": "ROS generation rate (DCF-DA)", "setting": "HEI-OC1 cell line; AVN 1 μM pretreated 24 hrs + GM 3 μM", "result": 13.46}, {"measurement": "increase rate of DCF fluorescent intensity", "setting": "HEI-OC1 cell line; AVN only (0.5 μM), Table 3", "result": 32.27}, {"measurement": "increase rate of DCF fluorescent intensity", "setting": "HEI-OC1 cell line; GM 4 μM + AVN 0.1 μM (24 hrs pretreatment)", "result": 7.62}, {"measurement": "increase rate of DCF fluorescent intensity", "setting": "HEI-OC1 cell line; GM 4 μM + AVN 0.2 μM", "result": 5.4}, {"measurement": "increase rate of DCF fluorescent intensity", "setting": "HEI-OC1 cell line; GM 4 μM + AVN 0.4 μM", "result": 5.43}, {"measurement": "increase rate of DCF fluorescent intensity", "setting": "HEI-OC1 cell line; GM 4 μM + AVN 0.6 μM", "result": 5.36}, {"measurement": "increase rate of DCF fluorescent intensity", "setting": "HEI-OC1 cell line; GM 4 μM + AVN 0.8 μM", "result": 1.31}, {"measurement": "increase rate of DCF fluorescent intensity", "setting": "HEI-OC1 cell line; GM 4 μM + AVN 1.0 μM", "result": 1.62}, {"measurement": "increase rate of DCF fluorescent intensity", "setting": "HEI-OC1 cell line; GM 4 μM + AVN 1.5 μM", "result": 2.06}, {"measurement": "increase rate of DCF fluorescent intensity", "setting": "HEI-OC1 cell line; GM 4 μM + AVN 2.0 μM", "result": 1.26}, {"measurement": "increase rate of DCF fluorescent intensity", "setting": "HEI-OC1 cell line; GM 4 μM + AVN 4.0 μM", "result": 1.1}, {"measurement": "increase rate of DCF fluorescent intensity", "setting": "HEI-OC1 cell line; GM 4 μM + AVN 6.0 μM", "result": 0.81}, {"measurement": "ROS generated by gentamicin", "setting": "HEI-OC1 cell line; as the avenanthramide treatment time increased (3, 12, 24 hr)", "result": "decreased"}, {"measurement": "effect on the damage by gentamicin", "setting": "HEI-OC1 cell line; avenanthramide 0.1 μM, GM 4 μM", "result": "did not affect the damage by gentamicin"}, {"measurement": "decrease of the amount of ROS as compared to no avenanthramide", "setting": "HEI-OC1 cell line; avenanthramide 0.2 μM, GM 4 μM", "result": "≥ 50", "unit": "%"}, {"measurement": "amount of ROS generated by gentamicin", "setting": "HEI-OC1 cell line; avenanthramide pretreated for 24 hours", "result": "decreased"}, {"measurement": "benefit in reducing the ROS generated by gentamicin", "setting": "HEI-OC1 cell line; treatment of avenanthramide for 24 hours or more", "result": "no particular benefit"}, {"measurement": "effect of suppressing hearing loss caused by the ROS", "setting": "HEI-OC1 cell line; treatment time of avenanthramide 24 hours or more", "result": "up to the same level as a control"}]}
{"compound": "O=C1O[C@H]([C@@H](O)CO)C(O)=C1O", "note": "[ascorbic acid, reference compound]", "values": [{"measurement": "protection of hearing loss (DCF-DA test) as compared to gentamicin only", "setting": "HEI-OC1 cell line", "result": "not verified that when the ascorbic acid was administered, particular protection of hearing loss was shown"}]}
{"compound": "gentamicin [reference compound]", "values": [{"measurement": "ROS generation rate (DCF-DA)", "setting": "HEI-OC1 cell line; GM 3 μM alone", "result": 24.39}, {"measurement": "increase rate of DCF fluorescent intensity", "setting": "HEI-OC1 cell line; GM 3 μM alone, Table 3", "result": 56.06}, {"measurement": "increase rate of DCF fluorescent intensity", "setting": "HEI-OC1 cell line; GM 4 μM only, Table 4", "result": 11.51}, {"measurement": "increase rate of the DCF fluorescence intensity", "setting": "HEI-OC1 cell line; Gentamicin 2 μM", "result": 7.64, "unit": "%"}, {"measurement": "increase rate of the DCF fluorescence intensity", "setting": "HEI-OC1 cell line; Gentamicin 3 μM", "result": 12.59, "unit": "%"}, {"measurement": "increase rate of the DCF fluorescence intensity", "setting": "HEI-OC1 cell line; Gentamicin 4 μM", "result": 20.35, "unit": "%"}, {"measurement": "generation amount of the ROS", "setting": "HEI-OC1 cell line; as the treatment amount of gentamicin was increased (0-4 μM)", "result": "increased"}, {"measurement": "cell death", "setting": "HEI-OC1 cell line; gentamicin of 10 μM or more", "result": "the cells were almost died"}]}
{"compound": "β-glucan [reference compound]", "values": [{"measurement": "protection of hearing loss (DCF-DA test) as compared to gentamicin only", "setting": "HEI-OC1 cell line", "result": "not verified that when the β-glucan was administered, particular protection of hearing loss was shown"}]}
